Results reported in patent US11306125B2, “PCSK9 antagonists bicyclo-compounds” (Merck Sharp & Dohme Corp., priority 2018, dated 2022).
Starred links: 1 amine or outer side, 2 acyl side, 3 side chain; linkers in the order of their positions; H or OH if unused. Positions of bridges follow the written chain, without caps; N, C: chain ends. Non-standard residues stand in square brackets, D forms with d. Residues, ends and D or L forms follow the SMILES beside them. *: point of attachment. X2 = CC1(C)C(/C=C/C=C/C=C2\N(CCCS(=O)(=O)O)c3ccc(S(=O)(=O)O)cc3C2(C)CCCCCC(=O)*)=[N+](CCCS(=O)(=O)[O-])c2ccc(S(=O)(=O)O)cc21; Phe(3-CH2NH2) = O=C([C@H](Cc1cccc(CN[*:3])c1)N[*:1])[*:2]; Me3N+(CH2)2O(CH2)2O(CH2)2CO = C[N+](C)(C)CCOCCOCCC(=O)*; Trp(5-F) = N[C@@H](Cc1c[nH]c2ccc(F)cc12)C(=O)O; X1 = O=C(CCC(=O)[*:1])NCc1ccc(CCN[*:2])cc1; mXylylene = c1cc(C[*:1])cc(C[*:2])c1; AEF = NCCOc1ccc(C[C@H](N)C(=O)O)cc1; Glutaryl = O=C(CCCC(=O)[*:2])[*:1]; NMeE = CN[C@@H](CCC(=O)O)C(=O)O; αMeP = C[C@@]1(C(=O)O)CCCN1; dDap = NC[C@@H](N)C(=O)O; Dap = NC[C@H](N)C(=O)O; Boc = CC(C)(C)OC(=O)*; Mpa = O=C(O)CCS; tBu = CC(C)(C)*

Tests used:
Format in all cases: binding
PCSK9 [1] = target: T1, PCSK9 (Homo sapiens, UniProt Q8NBP7); assay: PCSK9 Alexa FRET Plus TR-FRET assay
T1 construct: purchased
Method: A solution containing 1 nM biotinylated PCSK9+2.5 nM Lance Streptavidin Europium (Strep-Eu) is made in 50 mM HEPES pH 7.4, 0.15 M NaCl, 5 mM CaCl2, 0.01% BSA, and 0.01% Surfactant P20. A separate solution containing 1920 nM of the AlexaFluor tagged cyclic peptide is made in the same buffer system. An Echo is used to transfer 0.075 ul of compound plus 0.675 ul of DMSO to each well of an assay plate followed by the addition of 15 ul of PCSK9+Stept-Eu and 15 ul of AF peptide. The final assay volume is 30.750 ul containing 0.5 nM PCSK9, 1.25 nM Strep-Eu, and 960 nM AF cyclic peptide. The reaction is incubated at room temperature for at least two hours prior to fluorescence measurements using an Envision Multilabel Reader. IC50 values are determined by fitting data to a sigmoidal dose-response curve using nonlinear regression. Ki is then calculated from the IC50 and the KD of AF cyclic peptide. Counts (B-counts) of the europium-labeled PCSK9 are followed to observe if compounds are adversely affecting PCSK9. A fall off of the B-counts is likely indicates a false positive of inhibition. Data from this procedure is reported as “P=‘numerical value’ (nanomolar)”

PCSK9 [2] = target: T1, PCSK9; assay: PCSK9 Alexa FRET Standard TR-FRET assay
Method: A solution containing 1 nM biotinylated PCSK9+2.5 nM Lance Streptavidin Europium (Strep-Eu) is made in 50 mM HEPES pH 7.4, 0.15 M NaCl, 5 mM CaCl2, 0.01% BSA, and 0.01% Surfactant P20. […] An Echo is used to transfer 0.750 ul of compound to an assay plate followed by the addition of 15 ul of PCSK9+Stept-Eu and 15 ul of AF peptide. […] The reaction is incubated at room temperature for at least two hours prior to fluorescence measurements using an Envision Multilabel Reader. IC50 values are determined by fitting data to a sigmoidal dose-response curve using nonlinear regression. Ki is then calculated from the Ic50 and the KD of AF cyclic peptide. Counts (B-counts) of the europium-labeled PCSK9 are followed to observe if compounds are adversely PCSK9. A fall off of the B-counts is likely indicates a false positive of inhibition. Data from this procedure is reported as “A=‘numerical value’ (nanomolar)”

PCSK9 [3] = target: T1, PCSK9; assay: KD of the AlexaFluor647 tagged cyclic peptide probes for PCSK9; conditions: AF tagged cyclic peptide probe, interaction with PCSK9
[4] = displacement of AlexaFluor647 tagged cyclic peptide Reagent B (960 nM) from biotinylated PCSK9 (0.5 nM), read-out: Plus / P (Alexa Fret plus standard TR Fret), Ki calculated from the IC50 and the KD of AF cyclic peptide
[5] = displacement of AlexaFluor647 tagged cyclic peptide Reagent A (20 nM) from biotinylated PCSK9 (0.5 nM), read-out: A (standard TR Fret), Ki calculated from the IC50 and the KD of AF cyclic peptide

T1 sequence (Q8NBP7 153-692): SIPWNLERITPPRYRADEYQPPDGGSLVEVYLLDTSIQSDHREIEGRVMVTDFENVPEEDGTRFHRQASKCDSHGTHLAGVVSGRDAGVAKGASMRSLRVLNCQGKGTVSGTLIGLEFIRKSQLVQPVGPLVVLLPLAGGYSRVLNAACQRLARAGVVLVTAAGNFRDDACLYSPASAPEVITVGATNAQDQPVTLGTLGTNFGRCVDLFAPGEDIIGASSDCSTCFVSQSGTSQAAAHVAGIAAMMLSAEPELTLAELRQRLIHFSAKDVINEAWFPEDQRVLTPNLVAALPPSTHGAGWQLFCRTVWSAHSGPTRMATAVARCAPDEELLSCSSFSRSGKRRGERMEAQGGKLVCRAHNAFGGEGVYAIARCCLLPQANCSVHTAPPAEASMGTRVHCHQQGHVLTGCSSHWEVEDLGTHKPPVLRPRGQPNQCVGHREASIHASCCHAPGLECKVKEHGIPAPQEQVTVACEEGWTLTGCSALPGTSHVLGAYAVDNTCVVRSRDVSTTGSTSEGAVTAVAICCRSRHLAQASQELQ

| Compound | Ki (PCSK9 [1]) | Ki (PCSK9 [2]) | Ki (PCSK9 [2]; [5]) | also measured |
| --- | --- | --- | --- | --- |
| COc1ccc(C[C@@H]2NC(=O)[C@H]([C@@H](C)O)NC(=O)[C@@H]3[C@@H]4CCN3C(=O)[C@H](Cc3c[nH]c5ccc(F)cc35)NC(=O)[C@H](Cc3cccc(c3)Cn3cc(nn3)CO4)NC(=O)[C@@H](C)NC(=O)[C@H](CNC(=O)CCOCCOCC[N+](C)(C)C)NC(=O)CCC(=O)NCc3ccc(cc3)CCNC(=O)[C@]3(C)CCCN3C2=O)cc1 [Ex-OT-06] | 0.29 nM | < 1.26 nM | – | – |
| COc1ccc(C[C@@H]2NC(=O)[C@H]([C@H](C)O)NC(=O)[C@@H]3[C@@H]4CCN3C(=O)[C@H](Cc3c[nH]c5ccc(F)cc35)NC(=O)[C@H](Cc3cccc(c3)Cn3cc(nn3)CO4)NC(=O)[C@@H](C)NC(=O)[C@H](CCCC[N+](C)(C)C)NC(=O)CCC(=O)NCc3ccc(cc3)C[C@@H](C(N)=O)NC(=O)[C@]3(C)CCCN3C2=O)cc1 [Ex-OT-04] | – | – | < 1.26 nM | Ki (PCSK9 [1]; [4]): 0.32 nM |
| COc1ccc(C[C@@H]2NC(=O)[C@H]([C@@H](C)O)NC(=O)[C@@H]3CCC(=O)NCc4cccc(c4)C[C@H](NC(=O)[C@@H](CNC(=O)CCOCCOCC[N+](C)(C)C)NC(=O)[C@H](C)NC(=O)CCC(=O)NCc4ccc(cc4)CCNC(=O)[C@]4(C)CCCN4C2=O)C(=O)N[C@@H](Cc2c[nH]c4ccc(F)cc24)C(=O)N3C)cc1 [Ex-C07] (A[dDap](Me3N+(CH2)2O(CH2)2O(CH2)2CO)[Phe(3-CH2NH2)][Trp(5-F)][NMeE]TY(Me)[αMeP]; lactam 3-5; linker N-C via X1) | – | – | 7.17 nM | – |
| COc1ccc(C[C@@H]2NC(=O)[C@H]([C@@H](C)O)NC(=O)[C@@H]3CCC(=O)NCc4cccc(c4)C[C@H](NC(=O)[C@@H](C)NC(=O)[C@H](CNC(=O)CCOCCOCC[N+](C)(C)C)NC(=O)CCC(=O)NCc4ccc(cc4)CCNC(=O)[C@]4(C)CCCN4C2=O)C(=O)N[C@@H](Cc2c[nH]c4ccc(F)cc24)C(=O)N3C)cc1 [Ex-C03] ([Dap](Me3N+(CH2)2O(CH2)2O(CH2)2CO)[dA][Phe(3-CH2NH2)][Trp(5-F)][NMeE]TY(Me)[αMeP]; lactam 3-5; linker N-C via X1) | – | – | 18.4 nM | – |
| COc1ccc(C[C@@H]2NC(=O)[C@H]([C@@H](C)O)NC(=O)[C@@H]3[C@@H]4CCN3C(=O)[C@H](Cc3c[nH]c5ccc(F)cc35)NC(=O)[C@H](Cc3cccc(c3)CNC(=O)CO4)NC(=O)[C@@H](C)NC(=O)[C@H](CN)NC(=O)CCC(=O)NCc3ccc(cc3)CCNC(=O)[C@]3(C)CCCN3C2=O)cc1 [Ex-B01] | 1.24 nM | 2.04 nM | – | – |
| COc1ccc(C[C@@H]2NC(=O)[C@H]([C@H](C)O)NC(=O)[C@@H]3[C@@H]4CCN3C(=O)[C@H](Cc3c[nH]c5ccc(F)cc35)NC(=O)[C@H](Cc3cccc(c3)Cn3cc(nn3)CO4)NC(=O)[C@@H](C)NC(=O)[C@H](C)NC(=O)[C@@H](NC(C)=O)CC(=O)NCc3ccc(cc3)C[C@@H](C(N)=O)NC(=O)[C@]3(C)CCCN3C2=O)cc1 [Ex-OT-03] | – | – | < 1.26 nM | Ki (PCSK9 [1]; [4]): 0.32 nM |
| COc1ccc(C[C@@H]2NC(=O)[C@H]([C@@H](C)O)NC(=O)C[C@@H]3[C@@H]4CCN3C(=O)[C@H](Cc3c[nH]c5ccc(F)cc35)NC(=O)[C@H](Cc3cccc(c3)CNC(=O)CO4)NC(=O)[C@@H](CNC(=O)CCOCCOCC[N+](C)(C)C)NC(=O)[C@H](C)NC(=O)CCC(=O)NCc3ccc(cc3)CCNC(=O)[C@]3(C)CCCN3C2=O)cc1 [Ex-B04] | – | – | < 1.26 nM | Ki (PCSK9 [1]; [4]): 0.02 nM |
| COc1ccc(C[C@@H]2NC(=O)[C@H]([C@@H](C)O)NC(=O)[C@@H]3CCC(=O)NCc4cccc(c4)C[C@H](NC(=O)[C@@H](CN)NC(=O)[C@H](C)NC(=O)CCC(=O)NCc4ccc(cc4)CCNC(=O)[C@]4(C)CCCN4C2=O)C(=O)N[C@@H](Cc2c[nH]c4ccc(F)cc24)C(=O)N3C)cc1 [Ex-C06] (A[dDap][Phe(3-CH2NH2)][Trp(5-F)][NMeE]TY(Me)[αMeP]; lactam 3-5; linker N-C via X1) | – | – | 15.9 nM | – |
| COc1ccc(C[C@@H]2NC(=O)[C@H]([C@@H](C)O)NC(=O)[C@@H]3CCC(=O)NCc4cccc(c4)C[C@H](NC(=O)[C@@H](C)NC(=O)CCCC(=O)NCCOc4ccc(cc4)C[C@@H](C(N)=O)NC(=O)[C@]4(C)CCCN4C2=O)C(=O)N[C@@H](Cc2c[nH]c4ccc(F)cc24)C(=O)N3C)cc1 [Ex-C02] ([dA][Phe(3-CH2NH2)][Trp(5-F)][NMeE]TY(Me)[αMeP][AEF]-NH2; lactam 2-4; linker N-8 via Glutaryl) | – | – | 151 nM | – |
| COc1ccc(C[C@@H]2NC(=O)[C@H]([C@@H](C)O)NC(=O)[C@@H]3[C@@H]4CCN3C(=O)[C@H](Cc3c[nH]c5ccc(F)cc35)NC(=O)[C@H](Cc3cccc(c3)CNC(=O)CO4)NC(=O)[C@@H](C)NC(=O)[C@H](CNC(=O)CCOCCOCC[N+](C)(C)C)NC(=O)CCC(=O)NCc3ccc(cc3)CCNC(=O)[C@]3(C)CCCN3C2=O)cc1 [Ex-B02] | 2.19 nM | 4.02 nM | – | – |
| COc1ccc(C[C@@H]2NC(=O)[C@H]([C@H](C)O)NC(=O)[C@@H]3[C@@H]4CCN3C(=O)[C@H](Cc3c[nH]c5ccc(F)cc35)NC(=O)[C@H](Cc3cccc(c3)Cn3cc(nn3)CO4)NC(=O)[C@@H](C)NC(=O)[C@H](CNC(=O)CCOCCOCC[N+](C)(C)C)NC(=O)CCC(=O)NCc3ccc(cc3)C[C@@H](C(N)=O)NC(=O)[C@]3(C)CCCN3C2=O)cc1 [Ex-OT-05] | 0.19 nM | < 1.26 nM | – | – |
| COc1ccc(C[C@@H]2NC(=O)[C@H]([C@@H](C)O)NC(=O)[C@@H]3[C@@H]4CCN3C(=O)[C@H](Cc3c[nH]c5ccc(F)cc35)NC(=O)[C@H](Cc3cccc(c3)CNC(=O)CO4)NC(=O)C(CN)NC(=O)[C@H](C)NC(=O)CCC(=O)NCc3ccc(cc3)CCNC(=O)[C@]3(C)CCCN3C2=O)cc1 (stereo partly shown) [Ex-B03] | 0.008 nM | < 1.26 nM | – | – |
| COc1ccc(C[C@@H]2NC(=O)[C@H]([C@@H](C)OC(C)(C)C)NC(=O)[C@@H]3CCC(=O)NCc4cccc(c4)C[C@H](NC(=O)[C@@H](CNC(=O)OC(C)(C)C)NC(=O)[C@H](C)NC(=O)CCC(=O)NCc4ccc(cc4)CCNC(=O)[C@]4(C)CCCN4C2=O)C(=O)N[C@@H](Cc2c[nH]c4ccc(F)cc24)C(=O)N3C)cc1 [Ex-C05] (A[dDap](Boc)[Phe(3-CH2NH2)][Trp(5-F)][NMeE]T(tBu)Y(Me)[αMeP]; lactam 3-5; linker N-C via X1) | – | – | < 1.26 nM | Ki (PCSK9 [1]; [4]): 4.37 nM |
| CC1(C)C(/C=C/C=C/C=C2\N(CCCS(=O)(=O)O)c3ccc(S(=O)(=O)O)cc3C2(C)CCCCCC(=O)NCCCC[C@@H]2NC(=O)CCSCc3cccc(c3)CSC[C@@H](C(N)=O)NC(=O)[C@]3(C)CCCN3C(=O)[C@H](Cc3ccc(O)cc3)NC(=O)[C@H](Cc3c[nH]cn3)NC(=O)[C@H](CC(=O)O)NC(=O)[C@H](Cc3c[nH]c4ccc(F)cc34)NC(=O)[C@H](Cc3c[nH]c4ccc(F)cc34)NC(=O)CNC2=O)=[N+](CCCS(=O)(=O)[O-])c2ccc(S(=O)(=O)O)cc21 (stereo partly shown) [Reagent A] ([Mpa]K(X2)G[Trp(5-F)][Trp(5-F)]DHY[αMeP]C-NH2; linker 1-10 via mXylylene) | – | – | – | Kd (PCSK9 [3]): 83 nM |
| COc1ccc(C[C@@H]2NC(=O)[C@H]([C@@H](C)O)NC(=O)[C@@H]3CCC(=O)NCc4cccc(c4)C[C@H](NC(=O)[C@@H](C)NC(=O)[C@H](C)NC(=O)[C@@H](NC(C)=O)CC(=O)NCCOc4ccc(cc4)C[C@@H](C(N)=O)NC(=O)[C@]4(C)CCCN4C2=O)C(=O)N[C@@H](Cc2c[nH]c4ccc(F)cc24)C(=O)N3C)cc1 [Ex-C01] (Ac-DA[dA][Phe(3-CH2NH2)][Trp(5-F)][NMeE]TY(Me)[αMeP][AEF]-NH2; lactam 1-10, 4-6) | – | – | 27.8 nM | – |
| COc1ccc(C[C@@H]2NC(=O)[C@H]([C@@H](C)O)NC(=O)[C@@H]3CCC(=O)NCc4cccc(c4)C[C@H](NC(=O)[C@@H](C)NC(=O)[C@H](CN)NC(=O)CCC(=O)NCc4ccc(cc4)CCNC(=O)[C@]4(C)CCCN4C2=O)C(=O)N[C@@H](Cc2c[nH]c4ccc(F)cc24)C(=O)N3C)cc1 [Ex-C04] ([Dap][dA][Phe(3-CH2NH2)][Trp(5-F)][NMeE]TY(Me)[αMeP]; lactam 3-5; linker N-C via X1) | – | – | 4.24 nM | – |
